Measured values from patent US20230049952A1, “METHODS AND COMPOUNDS FOR RESTORING MUTANT P53 FUNCTION” (PMV Pharmaceuticals, Inc., priority 2020, published 2023).

System: p53 signaling pathway in MT373 tumors
Assay: MT373 syngeneic sarcoma model: mouse p53 signaling pathway profiling panel
Assay type: in vivo
Conditions: for Actb* mRNA (housekeeping or reference gene), Fold Increase Over Vehicle Control or Percent Reduction Compared to Vehicle Control (%) / B2m* mRNA (housekeeping or reference gene), Fold Increase Over Vehicle Control or Percent Reduction Compared to Vehicle Control (%) / Gapdh* mRNA (housekeeping or reference gene), Fold Increase Over Vehicle Control or Percent Reduction Compared to Vehicle Control (%) / Gusb* mRNA (housekeeping or reference gene), Fold Increase Over Vehicle Control or Percent Reduction Compared to Vehicle Control (%) / Hsp90ab1* mRNA (housekeeping or reference gene), Fold Increase Over Vehicle Control or Percent Reduction Compared to Vehicle Control (%) / MGDC* (housekeeping or reference gene), Fold Increase Over Vehicle Control or Percent Reduction Compared to Vehicle Control (%) / Trp63 mRNA, Fold Increase Over Vehicle Control or Percent Reduction Compared to Vehicle Control (%) / Trp73 mRNA, Fold Increase Over Vehicle Control or Percent Reduction Compared to Vehicle Control (%) / Wt1 mRNA, Fold Increase Over Vehicle Control or Percent Reduction Compared to Vehicle Control (%) / Zmat3 mRNA, Fold Increase Over Vehicle Control or Percent Reduction Compared to Vehicle Control (%): MT373 tumors

## CCn1c(C#CCNc2ccccc2)cc2cc(CNC3CCN(C)CC3)ccc21 [Compound 1, 1-Anilino-3-{1-ethyl-5-[(1-methyl-4-piperidylamino)methyl]-1H-indol-2-yl}-2-propyne]
150 mg/kg BID×1, 24 h
  Il6 mRNA change: 85.31%
  Mdm2 mRNA increase: 5.96 fold
  Sesn2 mRNA increase: 2.45 fold
  Zmat3 mRNA increase: 6.17 fold
75 mg/kg BIDx1, 8 h
  Actb* mRNA (housekeeping or reference gene), Fold Increase Over Vehicle Control or Percent Reduction Compared to Vehicle Control (%): 1.60 fold or %
  B2m* mRNA (housekeeping or reference gene), Fold Increase Over Vehicle Control or Percent Reduction Compared to Vehicle Control (%): 1.16 fold or %
  Gapdh* mRNA (housekeeping or reference gene), Fold Increase Over Vehicle Control or Percent Reduction Compared to Vehicle Control (%): 11.24 fold or %
  Gusb* mRNA (housekeeping or reference gene), Fold Increase Over Vehicle Control or Percent Reduction Compared to Vehicle Control (%): 1.12 fold or %
  Hsp90ab1* mRNA (housekeeping or reference gene), Fold Increase Over Vehicle Control or Percent Reduction Compared to Vehicle Control (%): 10.06 fold or %
  MGDC* (housekeeping or reference gene), Fold Increase Over Vehicle Control or Percent Reduction Compared to Vehicle Control (%): 1.79 fold or %
  Trp63 mRNA, Fold Increase Over Vehicle Control or Percent Reduction Compared to Vehicle Control (%): 3.58 fold or %
  Trp73 mRNA, Fold Increase Over Vehicle Control or Percent Reduction Compared to Vehicle Control (%): 16.09 fold or %
  Wt1 mRNA, Fold Increase Over Vehicle Control or Percent Reduction Compared to Vehicle Control (%): 28.78 fold or %
  Zmat3 mRNA, Fold Increase Over Vehicle Control or Percent Reduction Compared to Vehicle Control (%): 6.25 fold or %
75 mg/kg BIDx1, 24 h
  Actb* mRNA (housekeeping or reference gene), Fold Increase Over Vehicle Control or Percent Reduction Compared to Vehicle Control (%): 1.08 fold or %
  B2m* mRNA (housekeeping or reference gene), Fold Increase Over Vehicle Control or Percent Reduction Compared to Vehicle Control (%): 1.14 fold or %
  Gapdh* mRNA (housekeeping or reference gene), Fold Increase Over Vehicle Control or Percent Reduction Compared to Vehicle Control (%): 13.68 fold or %
  Gusb* mRNA (housekeeping or reference gene), Fold Increase Over Vehicle Control or Percent Reduction Compared to Vehicle Control (%): 1.25 fold or %
  Hsp90ab1* mRNA (housekeeping or reference gene), Fold Increase Over Vehicle Control or Percent Reduction Compared to Vehicle Control (%): 17.39 fold or %
  MGDC* (housekeeping or reference gene), Fold Increase Over Vehicle Control or Percent Reduction Compared to Vehicle Control (%): 1.27 fold or %
  Trp63 mRNA, Fold Increase Over Vehicle Control or Percent Reduction Compared to Vehicle Control (%): 1.58 fold or %
  Trp73 mRNA, Fold Increase Over Vehicle Control or Percent Reduction Compared to Vehicle Control (%): 1.01 fold or %
  Wt1 mRNA, Fold Increase Over Vehicle Control or Percent Reduction Compared to Vehicle Control (%): 21.25 fold or %
  Zmat3 mRNA, Fold Increase Over Vehicle Control or Percent Reduction Compared to Vehicle Control (%): 4.14 fold
75 mg/kg BIDx1, 48 h
  Actb* mRNA (housekeeping or reference gene), Fold Increase Over Vehicle Control or Percent Reduction Compared to Vehicle Control (%): 1.07 fold or %
  B2m* mRNA (housekeeping or reference gene), Fold Increase Over Vehicle Control or Percent Reduction Compared to Vehicle Control (%): 1.27 fold or %
  Gapdh* mRNA (housekeeping or reference gene), Fold Increase Over Vehicle Control or Percent Reduction Compared to Vehicle Control (%): 34.54 fold or %
  Gusb* mRNA (housekeeping or reference gene), Fold Increase Over Vehicle Control or Percent Reduction Compared to Vehicle Control (%): 1.31 fold or %
  Hsp90ab1* mRNA (housekeeping or reference gene), Fold Increase Over Vehicle Control or Percent Reduction Compared to Vehicle Control (%): 12.45 fold or %
  MGDC* (housekeeping or reference gene), Fold Increase Over Vehicle Control or Percent Reduction Compared to Vehicle Control (%): 1.78 fold or %
  Trp63 mRNA, Fold Increase Over Vehicle Control or Percent Reduction Compared to Vehicle Control (%): 2.65 fold or %
  Trp73 mRNA, Fold Increase Over Vehicle Control or Percent Reduction Compared to Vehicle Control (%): 3.40 fold or %
  Wt1 mRNA, Fold Increase Over Vehicle Control or Percent Reduction Compared to Vehicle Control (%): 21.51 fold or %
  Zmat3 mRNA, Fold Increase Over Vehicle Control or Percent Reduction Compared to Vehicle Control (%): 1.02 fold or %
75 mg/kg BIDx1, 72 h
  Actb* mRNA (housekeeping or reference gene), Fold Increase Over Vehicle Control or Percent Reduction Compared to Vehicle Control (%): 1.06 fold or %
  B2m* mRNA (housekeeping or reference gene), Fold Increase Over Vehicle Control or Percent Reduction Compared to Vehicle Control (%): 1.11 fold or %
  Gapdh* mRNA (housekeeping or reference gene), Fold Increase Over Vehicle Control or Percent Reduction Compared to Vehicle Control (%): 14.41 fold or %
  Gusb* mRNA (housekeeping or reference gene), Fold Increase Over Vehicle Control or Percent Reduction Compared to Vehicle Control (%): 1.11 fold or %
  Hsp90ab1* mRNA (housekeeping or reference gene), Fold Increase Over Vehicle Control or Percent Reduction Compared to Vehicle Control (%): 7.83 fold or %
  MGDC* (housekeeping or reference gene), Fold Increase Over Vehicle Control or Percent Reduction Compared to Vehicle Control (%): 1.36 fold or %
  Trp63 mRNA, Fold Increase Over Vehicle Control or Percent Reduction Compared to Vehicle Control (%): 1.62 fold or %
  Trp73 mRNA, Fold Increase Over Vehicle Control or Percent Reduction Compared to Vehicle Control (%): 1.00 fold or %
  Wt1 mRNA, Fold Increase Over Vehicle Control or Percent Reduction Compared to Vehicle Control (%): 23.33 fold or %
  Zmat3 mRNA, Fold Increase Over Vehicle Control or Percent Reduction Compared to Vehicle Control (%): 1.10 fold or %
150 mg/kg BIDx1, 8 h
  Actb* mRNA (housekeeping or reference gene), Fold Increase Over Vehicle Control or Percent Reduction Compared to Vehicle Control (%): 1.00 fold or %
  B2m* mRNA (housekeeping or reference gene), Fold Increase Over Vehicle Control or Percent Reduction Compared to Vehicle Control (%): 1.05 fold or %
  Gapdh* mRNA (housekeeping or reference gene), Fold Increase Over Vehicle Control or Percent Reduction Compared to Vehicle Control (%): 1.02 fold or %
  Gusb* mRNA (housekeeping or reference gene), Fold Increase Over Vehicle Control or Percent Reduction Compared to Vehicle Control (%): 1.02 fold or %
  Hsp90ab1* mRNA (housekeeping or reference gene), Fold Increase Over Vehicle Control or Percent Reduction Compared to Vehicle Control (%): 9.13 fold or %
  MGDC* (housekeeping or reference gene), Fold Increase Over Vehicle Control or Percent Reduction Compared to Vehicle Control (%): 1.00 fold or %
  Trp63 mRNA, Fold Increase Over Vehicle Control or Percent Reduction Compared to Vehicle Control (%): 1.02 fold or %
  Trp73 mRNA, Fold Increase Over Vehicle Control or Percent Reduction Compared to Vehicle Control (%): 1.00 fold or %
  Wt1 mRNA, Fold Increase Over Vehicle Control or Percent Reduction Compared to Vehicle Control (%): 30.29 fold or %
  Zmat3 mRNA, Fold Increase Over Vehicle Control or Percent Reduction Compared to Vehicle Control (%): 6.69 fold or %
150 mg/kg BIDx1, 24 h
  Actb* mRNA (housekeeping or reference gene), Fold Increase Over Vehicle Control or Percent Reduction Compared to Vehicle Control (%): 1.11 fold or %
  B2m* mRNA (housekeeping or reference gene), Fold Increase Over Vehicle Control or Percent Reduction Compared to Vehicle Control (%): 1.11 fold or %
  Gapdh* mRNA (housekeeping or reference gene), Fold Increase Over Vehicle Control or Percent Reduction Compared to Vehicle Control (%): 14.16 fold or %
  Gusb* mRNA (housekeeping or reference gene), Fold Increase Over Vehicle Control or Percent Reduction Compared to Vehicle Control (%): 1.25 fold or %
  Hsp90ab1* mRNA (housekeeping or reference gene), Fold Increase Over Vehicle Control or Percent Reduction Compared to Vehicle Control (%): 24.42 fold or %
  MGDC* (housekeeping or reference gene), Fold Increase Over Vehicle Control or Percent Reduction Compared to Vehicle Control (%): 1.00 fold or %
  Trp63 mRNA, Fold Increase Over Vehicle Control or Percent Reduction Compared to Vehicle Control (%): 1.00 fold or %
  Trp73 mRNA, Fold Increase Over Vehicle Control or Percent Reduction Compared to Vehicle Control (%): 1.00 fold or %
  Wt1 mRNA, Fold Increase Over Vehicle Control or Percent Reduction Compared to Vehicle Control (%): 21.51 fold or %
  Zmat3 mRNA, Fold Increase Over Vehicle Control or Percent Reduction Compared to Vehicle Control (%): 6.17 fold
150 mg/kg BIDx1, 48 h
  Actb* mRNA (housekeeping or reference gene), Fold Increase Over Vehicle Control or Percent Reduction Compared to Vehicle Control (%): 1.04 fold or %
  B2m* mRNA (housekeeping or reference gene), Fold Increase Over Vehicle Control or Percent Reduction Compared to Vehicle Control (%): 1.20 fold or %
  Gapdh* mRNA (housekeeping or reference gene), Fold Increase Over Vehicle Control or Percent Reduction Compared to Vehicle Control (%): 27.30 fold or %
  Gusb* mRNA (housekeeping or reference gene), Fold Increase Over Vehicle Control or Percent Reduction Compared to Vehicle Control (%): 1.39 fold or %
  Hsp90ab1* mRNA (housekeeping or reference gene), Fold Increase Over Vehicle Control or Percent Reduction Compared to Vehicle Control (%): 19.96 fold or %
  MGDC* (housekeeping or reference gene), Fold Increase Over Vehicle Control or Percent Reduction Compared to Vehicle Control (%): 1.00 fold or %
  Trp63 mRNA, Fold Increase Over Vehicle Control or Percent Reduction Compared to Vehicle Control (%): 1.00 fold or %
  Trp73 mRNA, Fold Increase Over Vehicle Control or Percent Reduction Compared to Vehicle Control (%): 1.00 fold or %
  Wt1 mRNA, Fold Increase Over Vehicle Control or Percent Reduction Compared to Vehicle Control (%): 21.51 fold or %
  Zmat3 mRNA, Fold Increase Over Vehicle Control or Percent Reduction Compared to Vehicle Control (%): 1.36 fold or %
150 mg/kg BIDx1, 72 h
  Actb* mRNA (housekeeping or reference gene), Fold Increase Over Vehicle Control or Percent Reduction Compared to Vehicle Control (%): 1.04 fold or %
  B2m* mRNA (housekeeping or reference gene), Fold Increase Over Vehicle Control or Percent Reduction Compared to Vehicle Control (%): 1.18 fold or %
  Gapdh* mRNA (housekeeping or reference gene), Fold Increase Over Vehicle Control or Percent Reduction Compared to Vehicle Control (%): 19.69 fold or %
  Gusb* mRNA (housekeeping or reference gene), Fold Increase Over Vehicle Control or Percent Reduction Compared to Vehicle Control (%): 1.27 fold or %
  Hsp90ab1* mRNA (housekeeping or reference gene), Fold Increase Over Vehicle Control or Percent Reduction Compared to Vehicle Control (%): 1.00 fold or %
  MGDC* (housekeeping or reference gene), Fold Increase Over Vehicle Control or Percent Reduction Compared to Vehicle Control (%): 1.53 fold or %
  Trp63 mRNA, Fold Increase Over Vehicle Control or Percent Reduction Compared to Vehicle Control (%): 1.67 fold or %
  Trp73 mRNA, Fold Increase Over Vehicle Control or Percent Reduction Compared to Vehicle Control (%): 1.00 fold or %
  Wt1 mRNA, Fold Increase Over Vehicle Control or Percent Reduction Compared to Vehicle Control (%): 21.51 fold or %
  Zmat3 mRNA, Fold Increase Over Vehicle Control or Percent Reduction Compared to Vehicle Control (%): 1.21 fold or %
